# Experiments:
# Assay in all cases: Brefeldin A treatment of bacteria-infiltrated detached Arabidopsis leaves: bacterial multiplication and disease symptoms
# Format in all cases: in vivo
# Pst DC3000 = settings: Col-0 gl1 plants treated with water or BFA
# Method: (§1) A standard enumeration procedure involves pathogen inoculation, using any one of described methods, supra, followed by assaying bacterial populations present within host tissues at regular intervals. The population present within the tissue was calculated based on the dilution factor divided by the amount of tissue present in each sample. Plotting log (culturable bacterial number/cm^2 leaf tissue) against time (usually in days) after pathogen inoculation produced an unfitted curve, i.e. growth curve. For a review of methods, see, Katagiri et al., in The Arabidopsis Book, Somerville, Meyerowitz, Eds. (American Society of Plant Biologists, Rockville, Md., 2002), website://dx.doi.org/10.1199/tab.0039; herein incorporated by reference.
# (§2) Leaves were harvested and surface sterilized as follows: 1) whole leaves were removed from a host plant and gently mixed in a 70% ethanol solution for 1 minute. Leaves were blotted briefly on paper towels then rinsed in sterile distilled water for 1 minute, then blotted dry on paper towels. Leaf disks were excised from leaves with a 0.5 cm^2 or smaller cork borer, depending on the size of the sample leaves; 2) leaf disks from the leaves of 2 or more independent replicate plants were pooled for a single tissue sample and placed in a 1.5-mL microfuge tube with 100 μL sterile distilled water, the amount of leaf tissue per tube was recorded as leaf surface area. Three or more samples were harvested for each time point. Steps 1 and 2 were repeated for each sample; 3) Tissue samples were ground with a microfuge tube plastic pestle, by hand or by using a small hand-held electric drill. […] The number of serial dilutions necessary to get countable colonies were determined for each sample, however dilutions to 10^−7 were usually sufficient for any bacterial strain; 7) The samples were plated on the appropriate medium (e.g., Low salt Luria Bertani) supplemented with the necessary antibiotics to select for the specific inoculated bacterial strain. Plating was done in the traditional way (100 μL of a single sample was spread on a single plate) or several 10 μL aliquots of the 1:10 serial dilutions were spotted on to a single plate and allowed to dry onto the surface; and 8) Plates were placed at 30° C. for approximately 2 days with a cfu value determined for each dilution of each sample. […]
# (§3) Leaves were infiltrated with 1×10^6 cfu/ml of bacteria, detached, and placed in microtiter wells with petioles immersed in the 36 μM BFA (Sigma Co.) solution. […] Bacterial populations and disease symptoms were determined on day 0 and day three.
# Pst DC3000 ΔCEL mutant = tested on: Pst DC3000 ΔCEL mutant
# Method: as §1, §2, §3
# hrcC mutant = settings: Col-0 gl1 plants treated with water or BFA
# Method: as §1, §2, §3
compound,measurement,setting,value
"C[C@H]1CCC/C=C/[C@@H]2C[C@H](O)C[C@H]2[C@H](O)/C=C/C(=O)O1 [BFA, Brefeldin A]",multiplication or disease symptoms caused by Pst DC3000,Pst DC3000,no significant differences
same,virulence (both multiplication and disease symptoms) of the Pst DC3000 ΔCEL mutant,"Pst DC3000 ΔCEL mutant; 36 μM BFA, wild-type Col-0 gl1 leaves infiltrated with 1×10^6 cfu/ml, day three, vs water",significantly enhanced
same,"restoration of the virulence of the Pst DC3000 ΔCEL mutant, BFA-treated leaves compared with AtMIN7 KO plants",Pst DC3000 ΔCEL mutant; BFA-treated leaves,greater than that in the AtMIN7 KO plants
same,multiplication or disease symptoms caused by the hrcC mutant,hrcC mutant,no significant differences

# Reference: patent publication US7985889B2, “AtMIN7 mediated disease resistance to Pseudomonas syringae in Arabidopsis” (priority 2007, dated 2011)
